Among the data in PubChem BioAssay AID179 (DTP/NCI, 2004) are EC50, IC50 and outcome values, retold here.

As a reminder, the pEC50 is the EC50 on a negative log10 scale, so that one unit is a factor of ten. As usually defined, the pIC50 is the negative decadic logarithm of the IC50, by convention in mol/L. High values mean a low IC50, low ones a high IC50.

The subject of the assay is CEM cells HIV-1 protection, formazan growth assay. The assay can be described thus: NCI AIDS Antiviral Assay. The note with it: for pIC50: measured here: growth of uninfected CEM cells. The procedure, abridged: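 Steps: treat uninfected and HIV-1-infected human CEM cells at five drug levels; quantify growth by soluble formazan; retest any compound reaching 50% protection; classify actives from the retest.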

pEC50, pIC50: −log10 of the molar value. “And” between values parts separate entries of the source, which are not always exact repeats. Equal values may be shown once. The source made the active and inactive calls.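 How the source made its calls: active means compounds giving half or more protection of infected cells from virus-caused growth loss, again on retest; inactive means the rest.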

Regarding `CCCCC(=O)N1C(=O)/C(=C\N(C)C)c2cc(C=O)ccc21`, the pEC50 is less than 3.70 and the pIC50 was 4.53.
For `C1CCCCC2(CCCCCCCCC3(CCC1)OCCO3)OCCO2`, the pEC50 is less than 3.70 and the pIC50 is less than 3.70.
`CC(=O)NNc1nc(C)c(C(=O)NNC(=O)C(=O)Nc2ccc(Cl)cc2)s1`: the outcome was inactive.
Regarding `O=C(NCCNCCNC(=O)c1cc(-c2ccccc2)nc2ccccc12)c1cc(-c2ccccc2)nc2ccccc12`, the pEC50 was less than 4.70 and the pIC50 was 5.46.
For `C#CCn1c(=O)c2ccccc2n(CC#C)c1=O` the same measures were less than 3.70 and less than 3.70.
With `Nc1nc2c(c(=O)[nH]1)NC(CO)CN2` (centres undefined), the outcome was inactive.
With `CC(C)NCCNC(=O)c1ccccc1Nc1c(Cl)cccc1Cl`, the pEC50 is less than 3.70 and the pIC50 was 4.83.
As to `Oc1c(Cl)cccc1SSc1cccc(Cl)c1O`, the pEC50 is less than 3.70 and the pIC50 is 4.46.
For `Cc1ccc(NC(=O)CC2Sc3ccccc3NC2=O)c(C)c1` (centres undefined), the pEC50 is less than 4.10 and the negative logarithm of the IC50 (pIC50) is 4.41.
For `O=C1NCN(c2ccccc2)C12CCN(CCCSc1ccc(F)cc1)CC2`, the pEC50 was less than 3.70 and the pIC50 was 4.74.
Turning to `C/C(=N/Nc1ccc([N+](=O)[O-])cc1[N+](=O)[O-])C(CC(C(=O)NCc1ccccc1)/C(C)=N\Nc1ccc([N+](=O)[O-])cc1[N+](=O)[O-])C(=O)NCc1ccccc1` (centres undefined), the pEC50 was less than 5.16 and the negative-log IC50 (pIC50) is less than 5.16.
As to `NC(N)=NC(P(=O)(O)O)P(=O)(O)O`, the pEC50 was less than 3.70 and the pIC50 is less than 3.70.
Regarding `CC(C)(C)[Si](C)(C)OCCc1ccccc1C1CC2(S(=O)(=O)c3ccccc3)ON1CC2S(=O)(=O)c1ccccc1` (centres undefined), the pEC50 is less than 4.79 and the pIC50 is less than 4.79.
In the case of `O=C([O-])C(=O)[N-]CCC[N-]C(=O)C(=O)[N-]CCC[N-]C(=O)C(=O)[O-].[Cu+2].[Cu+2].[Na+]`, the pEC50 is less than 3.70 and the pIC50 was 4.77.
For `CCOc1ccc(NC(=O)C(=O)C2C(=O)Nc3ccccc3S2=O)cc1` (centres undefined) the same measures were less than 4.30 and less than 4.30.
Take `BrC1=CC=C2NC=CC3=CC=NC1C32` (centres undefined): the result was inactive.
For `CCCC/C=C/C1Cc2ccccc2CN1S(=O)(=O)c1ccc(C)cc1` (centres undefined), the pEC50 is less than 4.60 and the negative-log IC50 (pIC50) is 5.28.
Take `CNP(=O)(NC)NC`: the pEC50 was less than 3.70 and the pIC50 was less than 3.70.
With `COCOc1cc(C)c(C(=O)Oc2cc(C)c(C(=O)OC)c(OCOC)c2C)c(OCOC)c1C=O`, the pEC50 is less than 3.70 and the pIC50 is 4.57.
As for `O=C(/C=C/c1ccc(O)c(O)c1)O[C@@H](C(=O)O)[C@@H](OC(=O)/C=C/c1ccc(O)c(O)c1)C(=O)O`, the pEC50 is less than 3.70 and the pIC50 is 4.77.
In the case of `CCOC(=O)c1[nH]n(-c2ccccc2)c(=O)c1C=NC(=S)C(N)=S`, the pEC50 is less than 3.70 and the pIC50 was 4.47.
For `CC1(N2CCOCC2)CC2C(=[N+]1[O-])CCC/C2=N/O` (centres undefined), the pEC50 is less than 3.70 and the negative logarithm of the IC50 (pIC50) is less than 3.70.
Regarding `CCC1(C)C(C#N)(C#N)C1(C#N)C#N`, the pEC50 was less than 3.70 and the pIC50 is 5.89.
Turning to `Cn1c(-c2ccc(/C=N/NC(=S)N/N=C/c3ccc(-c4c[n+]5ccsc5n4C)cc3)cc2)c[n+]2ccsc12`, the pEC50 is less than 3.70 and the pIC50 was 3.93.
Take `C[n+]1c(-c2ccc(/C=N/NC(=O)c3ccc(C(=O)N/N=C/c4ccc(-c5cn6ccccc6[n+]5C)cc4)cc3)cc2)cn2ccccc21`: the pEC50 is less than 5.41 and the pIC50 was 7.65.
As for `c1c(N2CCOCC2)ssc1=[N+]1CCOCC1`, the result was inactive.
On to `Cn1c(N2CCCC2)c(C=O)c(=O)n(C)c1=O`, for which the outcome was inactive.
Consider `CC1=CC(C)=Nc2ccccc2N1`, for which the pEC50 is less than 3.70; the negative-log IC50 (pIC50) is < 3.70 and 3.71.
`CC1Oc2c(c(=O)oc3ccccc23)[C@@]1(C)CC1C[C@H](C)C(=O)O1` (some centres undefined): the pEC50 is less than 3.70 and the pIC50 was 4.61.
Consider `C=C(C)C1CCC2(CO)C(O)CC3(C)C(CCC4C5(C)CCC(O)C(C)(C)C5CCC43C)C12` (centres undefined), for which the pEC50 is less than 4.00 and the pIC50 was 4.12.
For `Nc1ccccc1C(=O)CCC1C(=O)NC(=S)NC1=O` the same measures were less than 5.16 and less than 5.16.
On to `CCC1NC2CC3(C(=O)N(OC)c4ccccc43)C3CC1C2CO3` (centres undefined), for which the pEC50 is less than 3.57 and the pIC50 was less than 3.57.
As to `CC(C(=O)O)C1Nc2ccccc2NC1=O` (centres undefined), the pEC50 is less than 3.70 and the pIC50 was 4.08.
Take `Cc1cn(C2CC(N=[N+]=[N-])C(COC(=O)CCCCCCCCCCCN=[N+]=[N-])O2)c(=O)[nH]c1=O` (centres undefined): the pEC50 was 7.43 and the pIC50 is 3.74.
Consider `NC(=N\N=C/c1ccc(Cl)cc1)/C(N)=N\N=C/c1ccc(Cl)cc1`, for which the outcome was inactive.
On to `CC(=O)n1c2c(c(=O)n1-c1ccccc1)S(=O)CCC2` (centres undefined), for which the pEC50 was less than 3.91 and the pIC50 is 4.05.
As for `Cc1ccc(C2C(Cl)C(=O)N2n2cnc3ccccc3c2=O)cc1` (centres undefined), the pEC50 is less than 4.40 and the pIC50 is less than 4.40.
`COc1ccc(N(CC(=O)O)S(=O)(=O)c2ccccc2)cc1`: the result was inactive.
With `COC(=O)C1=C(C)N2[C@H](C(=O)O)CO[C@@]2(C)[C@H](C(=O)OC)[C@H]1c1cccc([N+](=O)[O-])c1`, the pEC50 is less than 3.70 and the pIC50 is less than 3.70.
Take `Cc1cc(C)nc(NS(=O)(=O)c2ccc(N=c3c4ccccc4n(-c4ccccc4)c4ccccc34)cc2)n1`: the outcome was inactive.
`CCN(CC)C/C(C)=C(/c1ccccc1)c1ccccc1S(N)(=O)=O`: the pEC50 was less than 3.70 and the pIC50 was less than 3.70.
Regarding `CC1C2Cc3ccc(O)cc3C1(C)CCN2CCC(=O)c1ccccc1` (centres undefined), the pEC50 was less than 3.70 and the pIC50 is 4.56.
As to `Oc1c(CN2CCOCC2)cc(N=Nc2ccccc2)c(O)c1CN1CCOCC1`, the pEC50 is less than 4.00 and the pIC50 was less than 4.00.
Take `Cc1cc(=O)[nH]c(Sc2ccc([N+](=O)[O-])cc2[N+](=O)[O-])n1`: the pEC50 was less than 3.70 and the negative logarithm of the IC50 (pIC50) is 5.20.
For `CC(C)(C)c1ccc(OC2CCO2)cc1` (centres undefined) the same measures were less than 4.46 and less than 4.46.
`N#CC(C(=O)CCC(=O)Nc1ccc(Cl)c(Cl)c1)c1ccc(Cl)cc1` (centres undefined): the pEC50 is less than 3.48 and the pIC50 is less than 3.48.
For `CC(=O)Oc1ccc2c(C)cc(=O)oc2c1OC(C)=O`, the pEC50 was less than 3.70 and the pIC50 is 4.16.
For the molecule `CC[n+]1c(/C=C/c2ccc(N(CCCl)CCCl)cc2)ccc2cc(I)ccc21`, the result was inactive.
Consider `Cc1cn(C2CC(O[Si](C)(C)C(C)(C)C)C(CN(O)C(N)=O)O2)c(=O)[nH]c1=O` (centres undefined), for which the pEC50 was less than 3.70 and the pIC50 is less than 3.70.
For `CC1(C)N=C(/C(C#N)=[N+](/[O-])C(=O)c2ccccc2)C(C)(C)N1O`, the pEC50 was less than 3.70 and the pIC50 was less than 3.70.
For `CC1=N[C@](C)(C2CC3C=CC2C3=O)COC1=O` (some centres undefined), the pEC50 is less than 3.25 and the pIC50 is less than 3.25.
On to `COc1ccnc(C(=O)N2CCCC2C(=O)O)c1` (centres undefined), for which the pEC50 is less than 3.70 and the pIC50 is less than 3.70.
Take `C=C(COC(=O)C(C)C)[C@H]1Oc2ccc(C(C)=O)cc2[C@@H]1OC(=O)C(C)C`: the pEC50 is less than 3.70 and the negative-log IC50 (pIC50) was less than 3.70.
For `CS(=O)(=O)OCCN(CCOS(C)(=O)=O)c1ccc(C=Nc2ccc(-c3csc(COc4ccccc4)n3)cc2)cc1`, the pEC50 was less than 3.70 and the pIC50 was 6.34.
For `CNc1ccc(C=C2c3ccccc3-c3ccccc32)cc1`, the pEC50 is less than 4.88 and the pIC50 was 5.32.
On to `CC1(CCCO)CCCCCC(C)(CCCO)C1=O` (centres undefined), for which the pEC50 was less than 3.70 and the pIC50 is 4.01.
In the case of `N#Cc1cnsc1`, the outcome was inactive.
On to `CCOC(=O)NC1C2CC(=O)OC(O2)C1OC(C)=O` (centres undefined), for which the pEC50 is less than 3.04 and the pIC50 is 4.40.
On to `C#Cc1cccc(N2C(=O)CCC2=O)c1`, for which the pEC50 was less than 3.33 and the pIC50 is 4.76.
For the molecule `O=S(=O)(/C=C/c1ccc(Cl)cc1Cl)Cc1ccccc1CS(=O)(=O)/C=C/c1ccc(Cl)cc1Cl`, the pEC50 is less than 4.90 and the pIC50 is less than 4.90.
As for `Cc1ccc(N2C(=O)C3C=CC(n4[nH]c(=O)n(Cc5ccccc5)c4=O)CC3C2=O)cc1` (centres undefined), the pEC50 was less than 3.38 and the pIC50 is less than 3.38.
In the case of `C=C1SC(=Nc2ccc(Cl)cc2)N(c2nc(Cl)nc(Cl)n2)C12CCCCC2`, the pEC50 was less than 4.00 and the pIC50 was less than 4.00.
Regarding `O=[N+]([O-])c1ccc2c(c1)n1c(N3CCCC3)[n+]3ccccc3c1c1c3cccc[n+]3c(N3CCCC3)n21`, the pEC50 is 4.14 and the pIC50 is 4.11.
Take `OC1OCC(COc2cc(Cl)c(Cl)cc2Cl)OC1O` (centres undefined): the pEC50 is less than 4.52 and the pIC50 is less than 4.52.
On to `O=NNc1ccc(S(=O)(=O)c2ccccc2)cn1`, for which the pEC50 was less than 3.70 and the pIC50 is less than 3.70.
With `COc1ccc(C(C)=C(C#N)C#N)cc1`, the pEC50 was less than 3.74 and the negative-log IC50 (pIC50) was less than 3.74.
Regarding `COc1ccc(C(CC(C)=O)c2c(O)c3ccccc3oc2=O)cc1OC` (centres undefined), the pEC50 was less than 3.70 and the pIC50 was less than 3.70.
Turning to `Cc1cc2c(cc1C)C(=O)/C(=N/Nc1ccc(F)cc1)CCO2`, the pEC50 is less than 3.70 and the pIC50 is 3.75.
As for `Cc1[nH]c(N)nc(=S)c1CCC(=O)O`, the pEC50 was less than 3.70 and the pIC50 is less than 3.70.
Turning to `Cc1nn(C(=O)Cc2ccccc2)c2c1C(c1ccc([N+](=O)[O-])cc1)SC(N)=N2` (centres undefined), the pEC50 is 4.11 and the negative-log IC50 (pIC50) is 3.93.
As for `O=C(/C=C/c1ccc2c(c1)OCO2)NCc1ccco1`, the pEC50 is less than 3.70 and the pIC50 is 3.93.
For the molecule `COC(=O)C1=C(C(=O)OC)C2(C)Nc3ccccc3C2=C(c2ccccc2)C1` (centres undefined), the pEC50 is less than 4.72 and the pIC50 is less than 4.72.
